# Data reported in patent publication US9763451B2, “Method for improved use of the production potential of genetically modified plants” (Bayer Intellectual Property GmbH, priority 2008, dated 2017).
# Key:
# Assay type in all cases: in vivo
# Spodoptera frugiperda = Spodoptera frugiperda test (foliar application) on genetically modified maize; conditions: compound alone, 100 ppm
# Source text: (§1) A synergistic effect in insecticides and acaricides is always present when the action of the active compound combinations exceeds the total of the actions of the active compounds when applied individually.
# (§2) The expected action for a given combination of two active compounds can be calculated as follows, using the formula of S. R. Colby, Weeds 15 (1967), 20-22:
# (§3) • X is the kill rate, expressed as % of the untreated control, when employing active compound A at an application rate of m g/ha or in a concentration of m ppm, • Y is the kill rate, expressed as % of the untreated control, when employing the transgenic seed and • E is the kill rate, expressed as % of the untreated control, when employing the active compound A at application rates of m g/ha or in a concentration of m ppm and the transgenic seed, then
# (§4) If the actual insecticidal kill rate exceeds the calculated value, the action of the combination is superadditive, i.e. a synergistic effect is present. In this case, the actually observed kill rate must exceed the value calculated using the above formula for the expected kill rate (E).
# Pots with in each case 5 genetically modified maize plants with Lepidoptera, Coleoptera and/or herbicide resistances are treated in 2 replications against the armyworm (Spodoptera frugiperda).
# After the desired period of time, the kill in % is determined. […]
# Aphis gossypii [1] = assay: Aphis gossypii test (drench application) on genetically modified cotton; conditions: 0.8 ppm
# Source text: as §1, §2, §3, §4
# (§5) Individual potted genetically modified cotton plants with Lepidoptera resistance and Glyphosate resistance are treated with the desired product against the cotton aphid (Aphis gossypii).
# (§6) After the desired period of time, the kill in % is determined. 100% means that all the aphids have been killed; 0% means that none of the aphids have been killed.
# Aphis gossypii [2] = assay: Aphis gossypii test (foliar application) on genetically modified cotton; conditions: 20 ppm
# Source text: as §1, §2, §3, §4, §5, §6
# [3] = combined with cotton plant containing cry gene and Glyphosate resistance gene, expected kill
smiles,measurement,setting,value
CC(c1ccc(C(F)(F)F)nc1)S(C)(=O)=NC#N (stereo not shown) [compound I-8],Kill in % after 4d,Spodoptera frugiperda,0%
same,"Kill in % after 2d, found","Aphis gossypii [1]; combined with cotton plant containing cry gene (Lepidoptera resistance) and Glyphosate resistance gene, after 2 d",90%
same,"Kill in % after 2d, calc. (Colby formula)",Aphis gossypii [1]; [3],70%
same,Kill in % after 2d,"Aphis gossypii [1]; active compound alone, after 2 d",70%
same,"Kill in % after 1d, found","Aphis gossypii [2]; combined with cotton plant containing cry gene (Lepidoptera resistance) and Glyphosate resistance gene, after 1 d",85%
same,"Kill in % after 1d, calc. (Colby formula)",Aphis gossypii [2]; [3],65%
same,Kill in % after 1d,"Aphis gossypii [2]; active compound alone, after 1 d",65%
